The text below walks through data of patent US8293724B2, “Therapeutic applications of fatty acid amide hydrolase inhibitors” (The United States of America, as represented by the …, priority 2007, dated 2012).

“Also recorded” adds a separate entry of the source.

Data set [1] relates to spontaneously hypertensive rat (SHR). Kind of data set: Hemodynamic measurements in anesthetized spontaneously hypertensive rats. To be noted: for change in MAP: n=4. It counts as in vivo. As to the method: (§1) Anandamide, the CB1 receptor antagonist AM251, and the anandamide transport inhibitors AM404 and OMDM-2 were obtained from Tocris; and the CB1 antagonist SR141716 and the CB2 antagonist SR144528 were from the National Institute on Drug Abuse drug supply program. Drugs were mixed in corn oil and sonicated for 5 minutes at 4° C. The mixture was added to 4 parts of Pluronic F68 (Sigma-Aldrich) solution (40 mg/mL) dissolved in water and sonicated to obtain a stable suspension for bolus intravenous injections.
Rats were obtained from Harlan (Indianapolis, Ind.). Male, 8- to 10-month-old SHR, age-matched male Wistar-Kyoto rats (WKY), and 8- to 10-week-old male Sprague-Dawley rats were maintained on standard rat chow and water ad libitum. Dahl salt-sensitive and salt-resistant rats (male, Rapp strain, 6 weeks old) were maintained for 4 weeks on rat chow containing either 0.12% or 8% NaCl. […] Hypertension was induced in Sprague-Dawley rats by chronic infusion of angiotensin II (60 ng/min) via an osmotic minipump (Imig et al. Hypertension 2002; 39: 690-694. Rats were used 10 to 12 days after implantation of the minipump.
(§2) For hemodynamic measurements, rats were anesthetized with pentobarbital sodium (60 mg/kg IP) and tracheotomized to facilitate breathing. Animals were placed on controlled heating pads, and core temperature, measured via a rectal probe, was maintained at 37° C. A microtip pressure-volume catheter (SPR-838; Millar Instruments) was inserted into the right carotid artery and advanced into the left ventricle (LV) under pressure control as described previously. Polyethylene cannulae (P50) were inserted into the right femoral artery and vein for measurement of mean arterial pressure (MAP) and administration of drugs, respectively. […] Heart rate, maximal LV systolic pressure, MAP, and maximal slope of systolic pressure increment (+dP/dt) were computed with a cardiac pressure-volume analysis program (PVAN2.9; Millar). Cardiac output calculated and corrected according to in vitro and in vivo volume calibrations with PVAN2.918 was normalized to body weight (cardiac index [CI]). Total peripheral resistance index (TPRI) was calculated by the equation TPRI=MAP/CI. In 3 experiments, drugs were microinjected into the fourth cerebral ventricle as described by Ramirez-Gonzalez et al. Circ Res. 1983; 53, 150-157.
(§3) Time-dependent variables were analyzed by ANOVA followed by the Dunnett post hoc test. In other cases, the Student t test was used, as appropriate. Values with P<0.05 were considered statistically significant.

The subject of data set [2] is Wistar-Kyoto rats (WKY). Kind of data set: Hemodynamic measurements in normotensive Wistar-Kyoto rats. It counts as in vivo, rat. The protocol: as §1
(§4) Rats were obtained from Harlan (Indianapolis, Ind.). Male, 8- to 10-month-old SHR, age-matched male Wistar-Kyoto rats (WKY), and 8- to 10-week-old male Sprague-Dawley rats were maintained on standard rat chow and water ad libitum. Dahl salt-sensitive and salt-resistant rats (male, Rapp strain, 6 weeks old) were maintained for 4 weeks on rat chow containing either 0.12% or 8% NaCl. Systolic blood pressure monitored daily by the tail-cuff technique was 120±11 mm Hg (salt-sensitive, 0.12% NaCl), 180±14 mm Hg (salt-sensitive, 8% NaCl), and 118±9 mm Hg (salt-resistant, 8% NaCl). Hypertension was induced in Sprague-Dawley rats by chronic infusion of angiotensin II (60 ng/min) via an osmotic minipump (Imig et al. Hypertension 2002; 39: 690-694. Rats were used 10 to 12 days after implantation of the minipump.
as §2, §3

In data set [3] the test system is liver-specific CB1 receptor knockout mice. Put plainly: Intraperitoneal glucose tolerance test in liver-specific CB1 receptor knockout mice on high-fat diet. The data set is classed as in vivo. To be noted: URB597 10 mg/kg i.p., liver-specific CB1 knockout mice on HFD. The protocol:
(§5) Male C57Bl6/J mice, wild-type or liver-specific CB1 receptor knockout, were kept on a diet containing 60% of calories as fat (Research Diets Inc) for 14 weeks, by which time both strains have become fat due to increased adipose mass. […] Sixty minutes later the mice received 1.5 g/kg glucose i.p. and blood glucose levels were monitored for 2 hours.

The subject of data set [4] is angiotensin II-treated hypertensive rats. Kind of data set: Blood pressure in angiotensin II-treated hypertensive rats. The data set is classed as in vivo, rat.
Text: as §4
(§6) For hemodynamic measurements, rats were anesthetized with pentobarbital sodium (60 mg/kg IP) and tracheotomized to facilitate breathing. Animals were placed on controlled heating pads, and core temperature, measured via a rectal probe, was maintained at 37° C. […] Cardiac output calculated and corrected according to in vitro and in vivo volume calibrations with PVAN2.918 was normalized to body weight (cardiac index [CI]). Total peripheral resistance index (TPRI) was calculated by the equation TPRI=MAP/CI. […]

Data set [5] is described as follows: Non-fasting blood glucose in SHR and WKY. To be noted: URB597 10 mg/kg i.p., n=4.
In data set [6] the target is T1, FAAH (Mus musculus, UniProt O08914).
T1 construct: the brain and liver removed, and tissue homogenates prepared as described above; from tissue; host or cells: mouse brain and liver homogenates after in vivo dosing
T1 sequence (O08914 1-579): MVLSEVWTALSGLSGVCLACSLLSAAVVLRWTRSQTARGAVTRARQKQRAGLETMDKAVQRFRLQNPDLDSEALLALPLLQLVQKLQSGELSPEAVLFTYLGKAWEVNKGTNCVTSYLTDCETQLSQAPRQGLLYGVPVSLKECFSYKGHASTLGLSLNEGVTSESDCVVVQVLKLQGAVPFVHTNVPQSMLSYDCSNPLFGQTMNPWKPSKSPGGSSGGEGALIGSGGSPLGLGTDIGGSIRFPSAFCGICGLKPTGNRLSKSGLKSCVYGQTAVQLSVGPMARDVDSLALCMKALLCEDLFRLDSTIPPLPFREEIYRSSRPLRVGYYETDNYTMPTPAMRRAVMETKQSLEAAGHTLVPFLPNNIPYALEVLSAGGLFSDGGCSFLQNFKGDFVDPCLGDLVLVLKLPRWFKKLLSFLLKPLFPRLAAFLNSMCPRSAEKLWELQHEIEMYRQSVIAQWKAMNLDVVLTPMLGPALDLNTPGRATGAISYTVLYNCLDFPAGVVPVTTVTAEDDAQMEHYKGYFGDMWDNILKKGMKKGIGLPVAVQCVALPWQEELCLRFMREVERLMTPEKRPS
Kind of data set: FAAH activity in brain and liver homogenates following in vivo administration. Set-up: species or system mice. Particulars: mouse. As to the method: For the experiments illustrated in FIG. 3, FAAH activity was assessed through a different method not requiring TLC separation, as described by Jonsson et al: Br. J. Pharmacol. 133:1263-1275, 1997. […] The mice were sacrificed one hour later, the brain and liver removed, and tissue homogenates prepared as described above. [^3H]Anandamide labeled on the ethanolamide moiety was added to the homogenate and incubated at 37° C. for 10 min. The homogenate was then extracted twice with chloroform:methanol 1:1 and the radioactivity in the aqueous phase (containing the released ethanolamide) was counted.

Data set [7] relates to normotensive controls (Sprague-Dawley rats). Kind of data set: Blood pressure in normotensive controls of angiotensin II-treated rats. It counts as in vivo, rat. Particulars: URB597, normotensive controls of angiotensin II-treated rats.
Text: as §4, §6

The subject of data set [8] is male DIO mice (wild-type C57Bl6/J on high-fat diet). Put plainly: Intraperitoneal glucose tolerance test in wild-type mice with diet-induced obesity. The data set is classed as in vivo. To be noted: URB597 10 mg/kg i.p., 60 min before glucose 1.5 g/kg i.p., 10 mg/kg. The protocol: as §5

For the molecule `CCCCC/C=C\C/C=C\C/C=C\C/C=C\CCCC(=O)Nc1ccc(O)cc1` [AM404], the “change in MAP” value in data set [1] (AM404 10 mg/kg, SHR) is reported as −63±19 mm Hg; in data set [2] (AM404 10 mg/kg), “no significant change”.
With `CCCCCCC(C)(C)c1cc(O)c2c(c1)OC(C)(C)[C@@H]1CC=C(CO)C[C@@H]21` [HU210], in data set [1] (SHR, n=6), the “hypotensive EC50” value came out at 1.5 µg/kg and the maximal hypotensive effect is reported as −108±11 mm Hg. In data set [2] (n=6), the “hypotensive EC50” value stood at 5.9 µg/kg and the maximal hypotensive effect is recorded as −39±14 mm Hg.
As for `CCCCCCCC/C=C\CCCCCCCC(=O)N[C@@H](CO)Cc1ccc(O)cc1` [OMDM-2], the “change in MAP” value in data set [1] (OMDM-2 5 mg/kg, SHR) was −39±10 mm Hg; in data set [2] (OMDM-2 5 mg/kg) it was “no significant change”.
As to `NC(=O)c1cccc(-c2cccc(OC(=O)NC3CCCCC3)c2)c1` [URB597], in data set [3], the glucose tolerance entry was “failed to affect glucose tolerance”. The blood pressure result in data set [4] (URB597, angiotensin II-treated hypertensive rats) is reported as “lowered blood pressure”. Also, the “non-fasting blood glucose after treatment” value in data set [5] (SHR, from 104.0±7.4) is 144.0 ± 9.6 mg/dL. In addition, the “non-fasting blood glucose after treatment” value in data set [5] (WKY, from 90.0±7.2) turned out to be 135.3 ± 12.9 mg/dL. Besides, the ED50 in data set [1] (Rattus norvegicus, dose-response studies, n=3, read-out: hypotensive ED50) was 1.7 mg/kg. In addition, the “hypotensive response after pretreatment with the VR1 antagonist capsazepine” value in data set [1] (SHR) was “not affected by capsazepine pretreatment”. In data set [1] (URB597 10 mg/kg IV, SHR), the LV systolic pressure result is listed as “decreased”, the TPRI result is “decreased”, the arterial pressure result is on record as “decreased arterial pressure to normotensive levels” and the dP/dt result is reported as “decreased”. Besides, the “cardiac contractility (pressure/volume relationship)” value in data set [1] (URB597, SHR) is given as “decrease in cardiac contractility”. In addition, in data set [1] (hypertensive animals, CB1 antagonists), the “effects of URB597 in the hypertensive animals in the presence of CB1 antagonists” value is given as “could be prevented by CB1 antagonists”. In data set [6] (in vivo, 10 mg/kg), the “inhibition of FAAH activity in the liver” value was “significantly inhibits FAAH activity in the liver” and the “inhibition of FAAH in brain” value is “near complete inhibition”. For the same molecule, the inhibition at 10 mg/kg in data set [6] (read-out: inhibition of FAAH in liver) was more than 90%. Moreover, the blood pressure result in data set [7] is “not in their normotensive controls”. In data set [8], the glucose intolerance result is on record as “marked increase in their glucose intolerance; also recorded: increases glucose intolerance”. The hemodynamic effects entry in data set [2] (URB597 10 mg/kg IV) is “no detectable hemodynamic effects”.
For the molecule `CCCCC/C=C\C/C=C\C/C=C\C/C=C\CCCC(=O)NCCO` [anandamide], the anandamide-induced hypotension result in data set [4] (rats with angiotensin II-induced hypertension) was “potentiated”. For the same molecule, the “hypotensive response after pretreatment with the VR1 antagonist capsazepine” value in data set [1] (SHR) is given as “not affected by capsazepine pretreatment”. In data set [1] (anandamide 10 mg/kg, SHR), the CI entry is listed as “decreases”; the TPRI result is reported as “decreases”; the blood pressure result is “sustained decrease in blood pressure to near normotensive levels”; the “cardiac contractility (dP/dt, LV systolic pressure)” value is listed as “decreases”. Further, the heart rate entry in data set [1] (anandamide 10 mg/kg, SHR) is given as “decreases”. In data set [2] (anandamide 10 mg/kg), the blood pressure result is “modest and short-lasting”; the cardiac contractility result is “modest and short-lasting”; the “duration of decrease in blood pressure and cardiac contractility” value was less than 5 min; the other hemodynamic changes entry was “without other hemodynamic changes”.

The term ED50 denotes the dose at which the effect has come halfway, by size or by number of responders. The inhibition is the share of the control response that was lost under treatment.
